US20240270779A1, “NOVEL PHENYLPROPANOID COMPOUND” (NABOCUL COSMETICS CO., LTD., priority 2021, published 2024)

Experiments:
B16 melanoma cells [1] = test: Amount of melanin produced in B16 melanoma cells (melanogenesis inhibition); type: cell-based, mouse; conditions: for inhibition at 10 µM: concentration 10 μM
Description: (§1) In this test, B16 melanoma cells were used. A B16 melanoma cell, a mouse skin melanoma-derived cell line, has melanogenic capacity. B16 melanoma cells were cultured in a DMEM medium (containing 10% FBS, 100 U/mL penicillin and […] streptomycin) in the presence of 5% CO2 at 37° C. and saturated humidity.
(§2) Ceratonia siliqua B was diluted with a DMEM medium to obtain sample solutions with different concentrations of 1 μM, 5 μM, 10 μM, 50 μM and 100 μM.
A single cell suspension of B16 melanoma cells was prepared, and 4×10^4 B16 melanoma cells were seeded in each well of a 12-well microplate. After culturing overnight in a CO2 incubator, the supernatant was removed, and the wells were divided into a blank control group, a positive control group and a test group. A 1 mL portion of a DMEM medium was added to each well of the blank control group, a 1 mL portion of each of solutions of L-ascorbic acid dissolved in DMEM medium at different concentrations (a concentration of L-ascorbic acid: 0.1 μM, 5 μM, 10 μM) was added to each well of the positive control group, and a 1 mL portion of each of the sample solutions from the above (b) was added to each well of the test group. After culturing for 48 hours, the supernatant was removed from each well followed by washing twice with PBS buffer, treatment with trypsin and addition of 1.2 mL of PBS buffer to prepare a single cell suspension. A 200 μL aliquot of this cell suspension was taken to determine the protein content. The remaining cell suspension was centrifuged at 3000 rpm for 5 minutes to remove the supernatant. Thereafter, 250 μL of a 1 M NaOH solution containing 1% DMSO was added thereto and dissolved for 30 minutes in a water bath heated to 80° C. A 200 μL aliquot of this solution was taken and the absorbance at 405 nm (Atest group, Apositive control group, Ablank control group) was measured. The test was performed in triplicate (3 wells) for the blank control group, for the positive control group and for each concentration of the sample solution in the test group (n=3).
The intracellular melanogenesis inhibition rate (%) was determined for the test group and the positive control group by the following equations:
[formula] • wherein Atest group is the absorbance of the test group, Apositive control group is the absorbance of the positive control group, and Ablank control group is the absorbance of the blank control group.

B16 melanoma cells [2] = test: MTT cytotoxicity test on B16 melanoma cells; type: cell-based, mouse; conditions: concentrations of 1 to 100 μM, 48 hours, FIG. 13
Description: as §1, §2
(§3) First, an MTT test was performed to confirm the presence or absence of cytotoxicity of Ceratonia siliqua B against B16 melanoma cells. B16 melanoma cells that had been subcultured for three generations or more were treated with trypsin to prepare a single cell suspension having a concentration of 3×10^4 cells/mL. A 100 μL portion of this cell suspension was seeded in each well of a 96-well microplate and cultured overnight in a CO2 incubator. The supernatant was removed from each well, and the wells were divided into a control (blank control) group and a test group. […] After 4 hours, the supernatant was removed, a 150 μL portion of DMSO was added to each well, and the absorbance at 570 nm was measured with a microplate reader. […]
(§4) The cell viability of the test group was calculated taking the value for the control (blank control) group as 100.

HepG2 cells [3] = test: MTT cytotoxicity test on HepG2 cells; type: cell-based, human; conditions: concentrations of 1 to 100 μM, 48 hours, FIG. 11
Description: (§5) In this test, a HepG2 cell, a human liver-derived tumor cell line was used as a living cell. HepG2 cells were cultured in a DMEM medium (containing 10% FBS, 100 U/mL penicillin and […] streptomycin) in the presence of 5% CO2 at 37° C. and saturated humidity.
as §2
as §3, with “HepG2” for “B16 melanoma”, “have” for “had”, “1×10^5” for “3×10^4”, “cultured” for “cultured overnight”, “incubator for 24 hours. After culturing, the” for “incubator. The”, “removed,” for “removed from each well,”
as §4

[4] = DPPH radical scavenging activity; type: biochemical; conditions: sample solutions 1-100 μM, 30 minutes at room temperature in the dark, absorbance 517 nm, FIG. 10
Description: Ceratonia siliqua B obtained in Example 2 was used to measure the DPPH radical scavenging activity of Ceratonia siliqua B.
First, Ceratonia siliqua B obtained in Example 2 was accurately weighed out and dissolved in methanol to prepare a sample solution with a concentration of 100 μM. This sample solution having a concentration of 100 μM was further diluted with methanol to obtain sample solutions with different concentrations of 1 μM, 5 μM, 10 μM and 50 μM. Next, 2 mg of DPPH (2,2-diphenyl-1-picrylhydrazyl) was dissolved in 50 mL of methanol to prepare a 100 μM DPPH solution.
A 190 μL portion of the DPPH solution was placed in each of wells of a 96-well microplate, and 10 μL of the sample solution was quickly added thereto. […] Thereafter, the absorbance at 517 nm (Asample) was measured with a microplate reader. The reaction solution to which methanol was added instead of the sample solution was used as a blank, and the absorbance of the blank (Ablank) was measured. In addition, the absorbance (Asample blank) due to coloration of the sample solution itself at each concentration was measured as a sample blank. […]
The radical scavenging rate (%) was determined by the following equation.
[formula] • wherein Ablank is the absorbance of the blank, Asample is the absorbance of the sample solution, and Asample blank is the absorbance of the sample blank.

HepG2 cells [5] = test: Measurement of ROS in HepG2 cells (hydrogen peroxide induced, DCFH-DA); type: cell-based, human; conditions: 1-100 μM, 24 hours pre-culture, 400 μM hydrogen peroxide 90 minutes, FIG. 12
Description: Ceratonia siliqua B obtained in Example 2 was used to examine the effect of Ceratonia siliqua B on the generation of reactive oxygen species (ROS) in living cells.
as §5
A HepG2 cell suspension having a concentration of 1×10^5 cells/mL was prepared, and a 100 μL portion of the cell suspension was seeded in each well of a 96-well microplate and cultured in a CO2 incubator for 24 hours. These wells were divided into a blank control group, a positive control group and a test group. […] Thereafter, the medium in each well was removed, 100 μL of PBS was added thereto, and fluorescence intensity at 535 nm was measured at an excitation wavelength of 485 nm. The amount of ROS generated in the positive control group and the test group was calculated taking the fluorescence intensity of the blank control group as 1.0 (basal). […]

[6] = Mus musculus, B16, 48 h, 48 hours, B16 melanoma cells, read-out: Melanogenesis inhibition rate (%)

With COc1cc(/C=C/COC(=O)C(C)C)cc(OC)c1O[C@@H]1O[C@H](CO)[C@@H](O)[C@H](O)[C@H]1O [Ceratonia siliqua B] the inhibition at 10 µM (B16 melanoma cells [1]; [6]) was 20.2%, the inhibition at 50 µM (B16 melanoma cells [1]; Mus musculus, B16, 48 h, concentration 50 μM, 48 hours, B16 melanoma cells, read-out: Melanogenesis inhibition rate (%)) was 25.6% and the inhibition at 100 µM (B16 melanoma cells [1]; Mus musculus, B16, 48 h, concentration 100 μM, 48 hours, B16 melanoma cells, read-out: Melanogenesis inhibition rate (%)) was over 30%. For the same molecule, the “inhibition effect on melanogenesis in B16 melanoma cells (in words)” value (B16 melanoma cells [1]; concentration of 10 to 100 μM, P<0.05) was “significant inhibition effect on melanogenesis”, the “cytotoxicity against B16 melanoma cells (MTT, cell viability)” value (B16 melanoma cells [2]) was “no cytotoxicity” and the “cytotoxicity against HepG2 cells (MTT, cell viability)” value (HepG2 cells [3]) was “no cytotoxicity”. For the same molecule, the “DPPH radical scavenging activity” value [4] was “scavenge DPPH radicals in a concentration-dependent manner” and the “ROS generation inhibiting effect in HepG2 cells” value (HepG2 cells [5]) was “inhibited the increase in ROS induced by hydrogen peroxide in HepG2 cells in a concentration-dependent manner”.
Molecule O=C1O[C@H]([C@@H](O)CO)C(O)=C1O [L-Ascorbic acid, L-ascorbic acid, reference compound] has an inhibition at 0.1 µM (B16 melanoma cells [1]; Mus musculus, B16, 48 h, concentration 0.1 μM, 48 hours, B16 melanoma cells, read-out: Melanogenesis inhibition rate (%)) of 9.2%, an inhibition at 5 µM (B16 melanoma cells [1]; Mus musculus, B16, 48 h, concentration 5 μM, 48 hours, B16 melanoma cells, read-out: Melanogenesis inhibition rate (%)) of 15.6% and an inhibition at 10 µM (B16 melanoma cells [1]; [6]) of 32.8%.
